We go through 11 compounds from ChEMBL document CHEMBL1138591, “Hair growth stimulator property of thienyl substituted pyrazole carboxamide derivatives as a CB1 receptor antagonist with in vivo antiobesity effect” (Bioorg Med Chem Lett, 2009).

The term EC50 denotes the concentration that produces a half-maximal response. By inhibition in vivo is commonly meant the drop in the measured response relative to a control, in per cent. What is called AUC(0-inf) is total exposure, with the tail of the curve extrapolated. For orientation: Tmax means the time at which the peak concentration occurs. As a reminder, the half-life is the time needed for the level to fall by half in the phase considered. What is called Cmax is the maximum level reached in the sampled fluid or tissue.

The source made the active and inactive calls.

In one data set the target is Cannabinoid receptor 1 (Homo sapiens, UniProt P21554). The data set is described as follows: Antagonist activity at human cannabinoid CB1 receptor expressed in CHOK1 cells assessed as cAMP activity. Format: functional, cell-based, CHO-K1.
A further data set deals with Cannabinoid receptor 2 (Homo sapiens, UniProt P34972). The data set is described as follows: Antagonist activity at human cannabinoid CB2 receptor expressed in CHOK1 cells assessed as cAMP activity. Format: functional, cell-based, CHO-K1.
The next data set concerns Rattus norvegicus. The data set is described as follows: Antiobesity activity in Zucker fa/fa rat assessed as inhibition of 5% sucrose solution intake at 10 mg/kg administered as single dose up to 4 hrs relative to control. It is filed as functional.
Data set [1] has as its system Mus musculus. The data set is described as follows: Hair growth stimulatory activity in high fat diet-induced C57BL/6J mouse at 10 mg/kg administered tropically for 28 days measured after 28 days. Format: functional, organism-based. Details: dose 10 mg/kg.
The nature of data set [2]: Drug level in fasted Zucker fa/fa rat brain at 30 mg/kg, po after 3 hrs. Format: ADME, organism-based. More on the design: dose 30 mg/kg, route oral. The conditions noted are these: read-out: Drug uptake.
Data set [3] is described as follows: Plasma concentration in fasted Zucker fa/fa rat at 30 mg/kg, po after 3 hrs. Format: ADME, organism-based. Details: dose 30 mg/kg, route oral.
Data set [4] relates to Mus musculus. The data set is described as follows: Hair growth stimulatory activity in high fat diet-induced C57BL/6J mouse assessed as bald area at 10 mg/kg, po administered once daily for 28 days measured after 28 days (Rvb=0.346 +/- 0.079 cm'2). Format: functional.
Data set [5] can be described thus: Drug level in fasted Zucker fa/fa rat white adipose tissue at 30 mg/kg, po after 3 hrs. It is filed as ADME, organism-based. More on the design: dose 30 mg/kg, route oral. The note with it: read-out: Drug uptake.
The species named for data set [6] is Mus musculus. The note with it: Swiss albino, 1 mg/kg.
Description: Inhibition of WIN-55212-2-induced hypothermia in Swiss albino mouse assessed as change in body temperature at 1 mg/kg po
Data set [7] deals with Mus musculus. The data set is described as follows: Inhibition of WIN-55212-2-induced catalepsy in Swiss albino mouse assessed as immobility on ring at 3 mg/kg po up to 300 seconds by ring test. More on the design: scale not given: the % may be the effect or the level left. Format: functional.
The test system of data set [8] is Mus musculus. The data set is described as follows: Effect on WIN-55212-2-induced locomotor activity in Swiss albino mouse assessed as number of square crossed at 10 mg/kg po up to 300 seconds (RbV=20.67 +/- 3.38 squares). Format: functional.
Data set [9] is described as follows: AUC (0 to infinity) in fasted Zucker fa/fa rat at 30 mg/kg, po. It is filed as ADME, organism-based. More on the design: time infinity, dose 30 mg/kg, route oral. The note with it: plasma.
The species named for data set [10] is Mus musculus. The conditions noted are these: Swiss albino, 3 mg/kg.
Description: Inhibition of WIN-55212-2-induced hypothermia in Swiss albino mouse assessed as change in body temperature at 3 mg/kg po
The test system of data set [11] is Mus musculus. The data set is described as follows: Inhibition of WIN-55212-2-induced catalepsy in Swiss albino mouse assessed as immobility on ring at 10 mg/kg po up to 300 seconds by ring test. It is filed as functional. More on the design: scale not given: the % may be the effect or the level left.
In data set [12] the test system is Mus musculus. The data set is described as follows: Effect on WIN-55212-2-induced locomotor activity in Swiss albino mouse assessed as number of square crossed at 5 mg/kg po up to 300 seconds (RbV=20.67 +/- 3.38 squares). It is filed as functional.
Data set [13] has as its system Mus musculus. The data set is described as follows: Inhibition of WIN-55212-2-induced catalepsy in Swiss albino mouse assessed as immobility on ring at 1 mg/kg po up to 300 seconds by ring test. It is filed as functional. More on the design: scale not given: the % may be the effect or the level left.
Data set [14] in a line: Drug level in fasted Zucker fa/fa rat white adipose tissue assessed per gram of tissue at 30 mg/kg, po after 3 hrs. Format: ADME, organism-based. More on the design: dose 30 mg/kg, route oral. The note with it: read-out: Drug uptake.
Data set [15] deals with Mus musculus. The data set is described as follows: Antiobesity activity in high fat diet-induced obese C57BL/6J mouse model assessed as reduction in body weight gain at 10 mg/kg, po administered once daily for 28 days. It is filed as functional, organism-based. Details: dose 10 mg/kg.
The species entered for data set [16] is Mus musculus. The note with it: Swiss albino, 5 mg/kg.
Description: Inhibition of WIN-55212-2-induced hypothermia in Swiss albino mouse assessed as change in body temperature at 5 mg/kg po
The subject of data set [17] is Mus musculus. The data set is described as follows: Antiobesity activity in high fat diet-induced obese C57BL/6J mouse model assessed as reduction in food intake at 10 mg/kg, po administered once daily for 28 days. It is filed as functional, organism-based. Details: dose 10 mg/kg.
Data set [18] relates to Mus musculus. The data set is described as follows: Effect on WIN-55212-2-induced locomotor activity in Swiss albino mouse assessed as number of square crossed at 1 mg/kg po up to 300 seconds (RbV=20.67 +/- 3.38 squares). It is filed as functional.
Data set [19] in a line: Tmax in fasted Zucker fa/fa rat at 30 mg/kg, po. The note with it: in vivo. Details: dose 30 mg/kg, route oral. Format: ADME, organism-based.
The test system of data set [20] is Mus musculus. The data set is described as follows: Inhibition of WIN-55212-2-induced catalepsy in Swiss albino mouse assessed as immobility on ring at 5 mg/kg po up to 300 seconds by ring test. It is filed as functional. More on the design: scale not given: the % may be the effect or the level left.
Data set [21] in a line: Half life in fasted Zucker fa/fa rat at 30 mg/kg, po. It is filed as ADME, organism-based. Details: dose 30 mg/kg, route oral. The note with it: in vivo.
The subject of data set [22] is Mus musculus. The data set is described as follows: Effect on WIN-55212-2-induced locomotor activity in Swiss albino mouse assessed as number of square crossed at 3 mg/kg po up to 300 seconds (RbV=20.67 +/- 3.38 squares). Format: functional.
In data set [23] the test system is Mus musculus. The data set is described as follows: Inhibition of WIN-55212-2-induced analgesia in Swiss albino mouse assessed as maximal possible effect at 5 mg/kg po by hot plate method. Format: functional. More on the design: scale not given: the % may be the effect or the level left. In general terms: Thermal pain tests record how soon the animal reacts.
Data set [24] in a line: Cmax in fasted Zucker fa/fa rat at 30 mg/kg, po. It is filed as ADME, organism-based. More on the design: dose 30 mg/kg, route oral. The conditions noted are these: in vivo.
Data set [25] deals with Mus musculus. The data set is described as follows: Inhibition of WIN-55212-2-induced analgesia in Swiss albino mouse assessed as maximal possible effect at 10 mg/kg po by hot plate method. It is filed as functional. More on the design: scale not given: the % may be the effect or the level left.
Data set [26] concerns Mus musculus. The data set is described as follows: Inhibition of WIN-55212-2-induced analgesia in Swiss albino mouse assessed as maximal possible effect at 1 mg/kg po by hot plate method. Details: scale not given: the % may be the effect or the level left. It is filed as functional.
The species named for data set [27] is Mus musculus. The note with it: Swiss albino, 10 mg/kg.
Description: Inhibition of WIN-55212-2-induced hypothermia in Swiss albino mouse assessed as change in body temperature at 10 mg/kg po
A short description of data set [28]: Drug level in fasted Zucker fa/fa rat brain assessed per gram of brain at 30 mg/kg, po after 3 hrs. Details: dose 30 mg/kg, route oral. It is filed as ADME, organism-based. The note with it: read-out: Drug uptake.
Data set [29] relates to Mus musculus. The data set is described as follows: Hair growth stimulatory activity in high fat diet-induced C57BL/6J mouse at 10 mg/kg, po administered once daily for 28 days measured after 28 days. Format: functional, organism-based. Details: dose 10 mg/kg.
For data set [30], the system named is Mus musculus. The data set is described as follows: Inhibition of WIN-55212-2-induced analgesia in Swiss albino mouse assessed as maximal possible effect at 3 mg/kg po by hot plate method. It is filed as functional. More on the design: scale not given: the % may be the effect or the level left.

Cannabinoid receptor 1, sequence (P21554 whole entry): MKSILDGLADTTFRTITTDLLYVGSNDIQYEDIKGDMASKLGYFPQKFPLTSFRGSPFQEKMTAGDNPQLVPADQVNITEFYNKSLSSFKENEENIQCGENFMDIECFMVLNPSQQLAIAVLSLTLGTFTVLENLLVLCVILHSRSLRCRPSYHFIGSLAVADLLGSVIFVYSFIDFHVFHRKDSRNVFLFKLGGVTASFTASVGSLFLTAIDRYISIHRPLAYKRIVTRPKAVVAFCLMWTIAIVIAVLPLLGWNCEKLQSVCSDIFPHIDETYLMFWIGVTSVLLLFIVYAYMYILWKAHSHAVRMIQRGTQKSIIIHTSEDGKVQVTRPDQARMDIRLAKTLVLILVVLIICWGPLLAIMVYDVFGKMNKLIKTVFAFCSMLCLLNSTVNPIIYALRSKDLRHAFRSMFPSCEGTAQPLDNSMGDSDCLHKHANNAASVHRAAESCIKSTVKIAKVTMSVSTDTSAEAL
Cannabinoid receptor 2, sequence (P34972 whole entry): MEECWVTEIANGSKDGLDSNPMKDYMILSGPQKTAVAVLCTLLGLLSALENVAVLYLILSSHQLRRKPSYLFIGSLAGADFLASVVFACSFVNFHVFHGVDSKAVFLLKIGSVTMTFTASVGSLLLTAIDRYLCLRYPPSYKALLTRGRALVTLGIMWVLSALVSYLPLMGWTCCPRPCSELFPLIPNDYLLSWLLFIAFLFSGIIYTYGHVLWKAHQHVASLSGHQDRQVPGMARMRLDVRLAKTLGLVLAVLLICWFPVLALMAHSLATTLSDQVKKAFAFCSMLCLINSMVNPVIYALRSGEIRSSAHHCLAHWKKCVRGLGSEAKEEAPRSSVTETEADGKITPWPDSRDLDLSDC

As for `Cc1c(C(=O)NN2CCCC2)nn(-c2ccc(Cl)cc2Cl)c1-c1ccc(Cl)s1`, the EC50 on Cannabinoid receptor 1 worked out at 1 µM; at Cannabinoid receptor 2, 20.9 µM. Also, the inhibition in vivo at 10 mg/kg in the data set with Rattus norvegicus was found to be 34.3%.
`CCc1c(C(=O)NN2CCCCC2)nn(-c2ccc(Cl)cc2Cl)c1-c1ccc(Cl)s1`: the EC50 on Cannabinoid receptor 1 turned out to be 0.54 µM; on Cannabinoid receptor 2, 25.9 µM. For the same compound, the inhibition in vivo at 10 mg/kg with Rattus norvegicus was determined as 31.3%.
Consider `Cc1c(C(=O)NN2CCOCC2)nn(-c2ccc(Cl)cc2Cl)c1-c1ccc(Cl)s1`, for which the EC50 on Cannabinoid receptor 1 came out at 0.69 µM; at Cannabinoid receptor 2, 7.43 µM. Besides, in the data set on Rattus norvegicus, the inhibition in vivo at 10 mg/kg was 31.5%.
Regarding `Cc1c(C(=O)NN2CCCCC2)nn(-c2ccc(Cl)cc2Cl)c1-c1cccs1`, the values for the EC50 on Cannabinoid receptor 1 and at Cannabinoid receptor 2 were 1.33 µM and 7.55 µM, respectively. For the same compound, in the data set with Rattus norvegicus, the inhibition in vivo at 10 mg/kg was 12.4%.
As for `Cc1c(C(=O)NN2CCCCC2)nn(-c2ccc(Cl)cc2Cl)c1-c1ccc(I)s1`, the results for the EC50 at Cannabinoid receptor 1 and on Cannabinoid receptor 2 were 0.32 µM and 29.4 µM, respectively. Also, the inhibition in vivo at 10 mg/kg in the data set on Rattus norvegicus worked out at 42.1%.
The matching figures for `Cc1c(C(=O)NN2CCCCC2)nn(-c2ccc(Cl)cc2Cl)c1-c1ccc(Br)s1`: 0.4 µM, 23.2 µM and 37.8%.
For `Cc1c(C(=O)NN2CCCCC2)nn(-c2ccc(Cl)cc2Cl)c1-c1ccc(Cl)cc1` [RIMONABANT], in the data set on Mus musculus [1], the outcome was inactive. Further, the concentration at 3 h in [2] was 150 ng/mL; in [3], 400 ng/mL; in data set [5], 1400 ng/mL. Also, the Activity in the data set with Mus musculus [4] came out at 0.156 cm2. Besides, the inhibition in vivo at 10 mg/kg in the data set with Rattus norvegicus turned out to be 40.1%.
In the case of `Cc1c(C(=O)NN2CCCCCC2)nn(-c2ccc(Cl)cc2Cl)c1-c1ccc(Cl)s1`, the results for the EC50 on Cannabinoid receptor 1 and on Cannabinoid receptor 2 were 1.1 µM and 12.8 µM, respectively. Besides, the inhibition in vivo at 10 mg/kg with Rattus norvegicus amounted to 20.1%.
Taken in the same sequence, the figures for `Cc1c(C(=O)NN2CC3CCCC3C2)nn(-c2ccc(Cl)cc2Cl)c1-c1ccc(Cl)s1` (stereo unspecified) were 0.8 µM, 15.7 µM and 26.3%.
Taken in the same sequence, the figures for `CCc1c(C(=O)NN2CCCCC2)nn(-c2ccc(Cl)cc2Cl)c1-c1ccc(Br)s1` were 0.51 µM, 19.5 µM and 39.2%.
Consider `Cc1c(C(=O)NN2CCCCC2)nn(-c2ccc(Cl)cc2Cl)c1-c1ccc(Cl)s1`, for which the outcome with Mus musculus [1] was inactive. In addition, the deltaT in the data set filed under Mus musculus [6] worked out at 2.56 °C; in the data set listed under Mus musculus [10], 1.92 °C; in the data set filed under Mus musculus [16], 0.23 °C; in the data set listed under Mus musculus [27], 0.23 °C. In addition, the Activity is reported as 73.13% with Mus musculus [7]; 171.4 in the data set with Mus musculus [8]; 41.8% in the data set with Mus musculus [11]; 126.5 in the data set with Mus musculus [12]; 80.73% with Mus musculus [13]; 69.8 in the data set with Mus musculus [18]. The Activity is 58.13% in the data set with Mus musculus [20]; 0.011 cm2 in the data set with Mus musculus [4]; 109.2 in the data set with Mus musculus [22]; 4.12% in the data set on Mus musculus [23]; 4.35% in the data set on Mus musculus [25]; 34.84% in the data set on Mus musculus [26]. Further, in the data set on Mus musculus [30], the Activity is recorded as 12.28%. The same compound displayed an AUC(0-inf) in [9] of 12400 ng·h/mL. The EC50 on Cannabinoid receptor 1 is 0.58 µM; on Cannabinoid receptor 2, 23.7 µM. In addition, the concentration at 3 h in data set [14] was determined as 2970 ng/g; in data set [2], 210 ng/mL; in [3] it was 850 ng/mL; in [5], 980 ng/mL; in [28], 640 ng/g. For the same compound, the outcome in the data set on Mus musculus [15], in the data set with Mus musculus [17] and in the data set with Mus musculus [29] was Active. Further, in [19], the Tmax was found to be 1.4 h. In addition, in [21], the half-life is 20.8 h. Further, the Cmax in data set [24] is 520 ng/mL. Also, the inhibition in vivo at 10 mg/kg with Rattus norvegicus turned out to be 48%.
